This is an account of results in ChEMBL document CHEMBL3739419, “Influence of Sugar Amine Regiochemistry on Digitoxigenin Neoglycoside Anticancer Activity” (ACS Med Chem Lett, 2015).

The structures appear in SMILES notation.

The subject of the assay is A549. In words: Anticancer activity against human A549 cells by alamar blue assay. Type of assay: functional, cell-based. A general note: Resazurin is reduced to fluorescent resorufin, in cell work by metabolically active cells.
Broadly, the IC50 is the concentration at which inhibition is half-maximal. A high value points to lower potency. In the case of `CON([C@H]1CC[C@@]2(C)[C@H](CC[C@@H]3[C@@H]2CC[C@]2(C)[C@@H](C4=CC(=O)OC4)CC[C@]32O)C1)[C@@H]1OC[C@@H](N)[C@H](O)[C@H]1O`, the IC50 stood at 43 nM.

Take `CON([C@H]1CC[C@@]2(C)[C@H](CC[C@@H]3[C@@H]2CC[C@]2(C)[C@@H](C4=CC(=O)OC4)CC[C@]32O)C1)[C@@H]1O[C@H](CO)[C@@H](N=[N+]=[N-])[C@H](O)[C@H]1O`: half-maximal inhibition (IC50) was put at 130 nM.

The compound `CON([C@H]1CC[C@@]2(C)[C@H](CC[C@@H]3[C@@H]2CC[C@]2(C)[C@@H](C4=CC(=O)OC4)CC[C@]32O)C1)[C@@H]1OC[C@@H](N=[N+]=[N-])[C@H](O)[C@H]1O` registered an IC50 of 34 nM. This IC50 is about 3.8-fold lower than that of the compound before.

`CON([C@H]1CC[C@@]2(C)[C@H](CC[C@@H]3[C@@H]2CC[C@]2(C)[C@@H](C4=CC(=O)OC4)CC[C@]32O)C1)[C@@H]1O[C@H](CO)[C@@H](O)[C@H](O)[C@H]1O` displayed an IC50 of 1600 nM.

`CON([C@H]1CC[C@@]2(C)[C@H](CC[C@@H]3[C@@H]2CC[C@]2(C)[C@@H](C4=CC(=O)OC4)CC[C@]32O)C1)[C@@H]1O[C@H](CO)[C@@H](O)[C@H](N=[N+]=[N-])[C@H]1O`: the IC50 was 390 nM.

Turning to `CON([C@H]1CC[C@@]2(C)[C@H](CC[C@@H]3[C@@H]2CC[C@]2(C)[C@@H](C4=CC(=O)OC4)CC[C@]32O)C1)[C@@H]1OC[C@@H](O)[C@H](N=[N+]=[N-])[C@H]1O`, half-maximal inhibition (IC50) required 17 nM.

In the case of `CON([C@H]1CC[C@@]2(C)[C@H](CC[C@@H]3[C@@H]2CC[C@]2(C)[C@@H](C4=CC(=O)OC4)CC[C@]32O)C1)[C@@H]1OC[C@@H](O)[C@H](N)[C@H]1O`, inhibition was half-maximal at 10 nM (IC50). Against the preceding compound, the IC50 is about 1.7-fold lower.

`CON([C@H]1CC[C@@]2(C)[C@H](CC[C@@H]3[C@@H]2CC[C@]2(C)[C@@H](C4=CC(=O)OC4)CC[C@]32O)C1)[C@@H]1O[C@H](CO)[C@@H](O)[C@H](N)[C@H]1O` returned an IC50 of 34 nM.

Consider `CON([C@H]1CC[C@@]2(C)[C@H](CC[C@@H]3[C@@H]2CC[C@]2(C)[C@@H](C4=CC(=O)OC4)CC[C@]32O)C1)[C@@H]1O[C@H](CO)[C@@H](N)[C@H](O)[C@H]1O`, for which the IC50 is 20 nM.
